Results: patent US20060216791A1, “Method for synthesizing amino-acid-selectively labeled protein” (Mitsubishi Chemical Corporation, priority 2003, published 2006)

Experiments:
Type in all cases: biochemical
[1] = system: cell-free protein synthetic system containing a wheat germ extract; experiment: Amount of GFP synthesized by wheat germ cell-free protein synthesis (GFP fluorescence intensity)
glutamine synthetase = experiment: Metabolism of glutamic acid to glutamine in wheat germ cell-free system, 1H-15N HSQC of synthesized yeast ubiquitin
Protocol: (§1) The mixed solution was allowed to react for 2 days with a dialysis buffer solution, wherein only one type of amino acid had been labeled with ^15N (manufactured by Cambridge Isotope Laboratories) and 19 types of remaining amino acids were ordinary amino acids. Thereafter, the dialysis buffer solution was exchanged with a fresh buffer solution, and the protein synthesis reaction was carried out further for 2 days. Thereafter, 1 ml of the reaction solution was concentrated to 250 μl using a Centricon-3 ultrafiltration concentration device manufactured by Millipore. […] The concentrated solution was passed through a Micro Spin G-25 gel filtration column manufactured by Amersham that had previously been equilibrated with a buffer solution used for NMR measurement (50 mM sodium phosphate, pH 6.5, 100 mM NaCl), so that the buffer solution was exchanged with a buffer solution used for the measurement, thereby preparing an NMR measurement sample.
(§2) For the NMR measurement, an Avance-500 spectrometer manufactured by Bruker was used. In order to maintain the stability of a magnetic field, 10% D2O used for NMR lock was added to the measurement sample, and thereafter, ^1H-^15N HSQC measurement was carried out. The measurement temperature was set at 30° C.
(§3) Subsequently, the concentration of aminooxyacetic acid in a translation solution and an external dialysis solution was set at 1 mM. The following 3 types of substrate amino acids were prepared: (1) only alanine was labeled with ^15N and 19 types of remaining amino acids were ordinary amino acids; (2) only aspartic acid was labeled with ^15N and 19 types of remaining amino acids were ordinary amino acids; and (3) only glutamic acid was labeled with ^15N and 19 types of remaining amino acids were ordinary amino acids. Using these substrate amino acids, yeast ubiquitins were synthesized by the same method as described in Example 1, and the ^1H-^15N HSQC was measured. […] Moreover, the aforementioned experiment was carried out under conditions whereby the concentration of aminooxyacetic acid was set at 0.1 μM, 1 μM, 10 μM, 100 μM, and 1 mM.
(§4) Subsequently, the concentration of aminooxyacetic acid was set at 1 mM and the concentration of L-methionine sulfoximine was set at 0.1 mM in a translation solution and an external dialysis solution. Substrate amino acid was prepared such that only glutamic acid was labeled with ^15N and 19 types of remaining amino acids were ordinary amino acids. Using such substrate amino acid, yeast ubiquitin was synthesized by the same method as described in examples, and the ^1H-^15N HSQC was measured. […] Moreover, the aforementioned experiment was carried out under conditions whereby the concentration of L-methionine sulfoximine was set at 0.1 μM, 1 μM, 10 μM, and 100 μM.

transaminase = experiment: Amino acid metabolism by transaminase in wheat germ cell-free system, 1H-15N HSQC of synthesized yeast ubiquitin; conditions: for metabolism of glutamic acid to aspartic acid: only glutamic acid labeled with 15N
Protocol: as §1, §2, §3, §4

| SMILES | amount of GFP synthesized ([1]; L-methionine sulfoximine 20 mM or less in external dialysis solution and reaction solution, FIG. 7) | metabolism of glutamic acid to glutamine (glutamine synthetase; 0.1 mM L-methionine sulfoximine plus 1 mM aminooxyacetic acid, only glutamic acid labeled with 15N, FIG. 8) | inhibition of the metabolism (glutamine synthetase; L-methionine sulfoximine 10 μM) | inhibition of the metabolism (glutamine synthetase; L-methionine sulfoximine 100 μM or more) | amount of GFP synthesized ([1]; aminooxyacetic acid 4 mM or less in external dialysis solution and reaction solution, FIG. 4) | synthesized amount of GFP maintained ([1]; aminooxyacetic acid 10 mM, FIG. 4) | metabolism of glutamic acid to aspartic acid (transaminase; 1 mM aminooxyacetic acid plus 0.1 mM L-methionine sulfoximine, FIG. 8) | HSQC signals observed (selective labeling) (transaminase; 1 mM aminooxyacetic acid, only alanine labeled with 15N, FIG. 5A) | HSQC signals observed (selective labeling) (transaminase; 1 mM aminooxyacetic acid, only aspartic acid labeled with 15N, FIG. 5B) | metabolism of glutamic acid to aspartic acid (transaminase; 1 mM aminooxyacetic acid, FIG. 6) | inhibition of the metabolism (transaminase; aminooxyacetic acid 10 μM) | inhibition of the metabolism (transaminase; aminooxyacetic acid 100 μM or more) | activity of metabolizing glutamic acid to glutamine (glutamine synthetase; 1 mM aminooxyacetic acid, only glutamic acid labeled with 15N, FIG. 6) |
| --- | --- | --- | --- | --- | --- | --- | --- | --- | --- | --- | --- | --- | --- |
| CS(=N)(=O)CC[C@H](N)C(=O)O (stereo partly drawn) [L-methionine sulfoximine] | not reduced | suppressed | two thirds | completely inhibited |  |  |  |  |  |  |  |  |  |
| NOCC(=O)O [aminooxyacetic acid] |  |  |  |  | not reduced | approximately 70% | suppressed | only signal derived from alanine or aspartic acid was observed | only signal derived from alanine or aspartic acid was observed | suppressed | two thirds | completely inhibited | has still remained |
